Here are results for four compounds from patent US5061695A, “Antitumor substance BE-12406” (Banyu Pharmaceutical Co., Ltd., priority 1989, dated 1991).

The nature of data set [1]: Acute toxicity in mice, single intraperitoneal dosing. Format: in vivo, mouse (ICR. The note with it: 100 mg/kg, ICR female mice.
The subject of data set [2] is P388 tumor cells. The data set can be described thus: In vitro growth inhibition of P388 tumor cells (overall statement). The format is cell-based, mouse. The following applies: 72 hours, 37° C. Here is the method: (§1) In vitro activity tests were performed for evaluating the inhibitory activities of the antitumor substances BE-12406A and B against mouse tumor cells. In the in vitro antitumor assay using P388 tumor cells, the antitumor substance BE-12406A or B was first dissolved in dimethyl sulfoxide and the solution was serially diluted with a cell culture medium containing 20% of dimethyl sulfoxide (20% DMSO-RPMI-1640 medium). Then, 2 μl of each dilution was added to 200 μl of a cell culture medium (10% fetal calf serum-RPMI-1640 medium) containing 2.5×10^4 tumor cells and the mixture was incubated under 5% CO2 at 37° C. for 72 hours. The viable cells were then counted with a Coulter counter. The result was compared with the control data. […] The corresponding values for P388/V cells were 0.2 and 7 μM, respectively.

The subject of data set [3] is P388/A cells. The data set can be described thus: In vitro growth inhibition of P388/A cells (adriamycin-resistant). Format: cell-based, mouse. The following applies: for IC50: Mus musculus, P388/A (adriamycin-resistant), read-out: IC50, 50% inhibitory concentration, P388/A; for inhibition of P388/A cells (in words): adriamycin-resistant. As to the method: as §1
Data set [4] in a line: Solubility. Format: physicochemical. The note with it: for Solubility in organic solvents: dimethyl sulfoxide and other organic solvents.
Data set [5] concerns human lung cancer cell line PC13. The data set can be described thus: Cancer cell growth inhibition, PC13 (sulforhodamine B). The following applies: PC-13, PC13, 72 hours, 37° C. The format is cell-based. Here is the method: (§2) For the assessment of the inhibitory activity of BE-12406A, B, X1 and X2 against human cancer cells, in vitro tests were carried out. As the test cells, human colon cancer cell lines DLD-1 and LS180 and human lung cancer cell line PC13 were used. The cell culture medium was 10% fetal calf serum-RPMI medium for DLD-1 and LS180, and 10% fetal calf serum-RPMI-1640 medium for PC13. First, each of BE-12406A, B, X1 and X2 was dissolved in dimethyl sulfoxide and the solution was serially diluted with PBS (phosphate-buffered saline) to prepare test solutions. The cancer cell growth inhibition assay was performed as follows. Thus, 100 μl of a cell culture medium containing 3×10^3 cancer cells was distributed into a 96-well microtiter plate and incubated under 5% CO2 at 37° C. for 24 hours. Then, 11 μl of the above test solutions were added and the incubation was further carried out under 5% CO2 at 37° C. for an additional 72 hours. The cells were then fixed with 50% trichloroacetic acid and stained with 0.4% sulforhodamine B. From the stained cells, the dye was extracted with 10 mM Tris solution and the absorbance at 540 nm was measured and compared with the control.

The subject of data set [6] is L1210 cells. Description: In vitro growth inhibition of L1210 cells (Coulter counter). Format: cell-based, mouse. The note with it: 37° C.; for growth inhibition of L1210 cells (in words): 72 hours; for IC50: Mus musculus, L1210, 72 hours, read-out: IC50, 50% inhibitory concentration, L1210. Here is the method:
(§3) Then, the in vitro inhibitory activity of BE-12406A and B was assayed using HeLa cells, which are human cancer cells, and L1210 cells which are mouse leukemia cells.
The growth inhibition assay using L1210 cells was performed as follows. Thus, antitumor substance BE-12406A or B in a concentration series was added to 200 μl of a cell culture medium (10% fetal calf serum-RPMI-1640) containing 4.5×10^3 L1210 cells and the mixture was incubated under 5% CO2 at 37° C. for 72 hours. The surviving suspended cells were counted with a Coulter counter and the result was compared with the control.

In data set [7] the test system is HeLa cells. Description: In vitro growth inhibition of HeLa cells (Crystal Violet). Format: cell-based, human. The following applies: 72 hours, 37° C.; for IC50: Homo sapiens, HeLa, read-out: IC50, 50% inhibitory concentration, HeLa. As to the method:
as §3
Thus, antitumor substance BE-12406A or B in a concentration series was added to 200 μl of a cell culture medium (10% fetal calf serum-MEM medium) containing 4×10^3 HeLa cells and the mixture was incubated under 5% CO2 at 37° C. for 72 hours. The surviving adherent cells were fixed with 10% formalin and stained with 0.01% Crystal Violet. Using a 1:1 (v/v) mixture of ethylene glycol and ethanol, the dye was extracted from the stained cells and the absorbance at 590 nm was measured and compared with the control.

Data set [8] relates to human colon cancer cell line DLD-1. Description: Cancer cell growth inhibition, DLD-1 (sulforhodamine B). The format is cell-based. The note with it: DLD-1, 72 hours, 37° C. Here is the method:
as §2

For data set [9], the system named is human colon cancer cell line LS180. Description: Cancer cell growth inhibition, LS180 (sulforhodamine B). The format is cell-based. The note with it: LS180, 72 hours, 37° C.; for IC50: Homo sapiens. As to the method:
as §2

In data set [10] the test system is P388/V cells. The data set can be described thus: In vitro growth inhibition of P388/V cells (vincristine-resistant). The format is cell-based. The following applies: Mus musculus, 72 hours, 37° C., read-out: IC50, 50% inhibition of P388/V cell growth. As to the method: as §1
(§4) The P388/S tumor cell line is one of the common mouse leukemia cell lines, and the P388/V line is a strain of P388 leukemia cell which has acquired resistance to the anticancer agent vincristine.

The test system of data set [11] is S-180 ascites tumor. Description: Antitumor effect on transplanted mouse S-180 ascites tumor (survival). Format: in vivo. The following applies: i.p.; for MST (mean survival time): days 1, 4, 7, 9 and 13, female ICR mice; for MST (% T/C), (treated MST/control MST) × 100: ≥ 125 = marked antitumor effect. As to the method:
In this assay using mice, 10^6 (lethal dose) S-180 tumor cells pre mouse were intrapetitoneally administered and the 5% DMSO-PBS (phosphate Buffered Saline solution of BE-12406A in a dilution series (1:2, 1:4, 1:8, etc.) was intraperitoneally administered. The results are summarized in Table 3.
^1 Inoculum: 10^6 ascites tumor cells, intraperitoneal
^2 Host: Female ICR mice
^3 Treatment schedule: BE12406A was administered intraperitoneally on
^4 MST: Mean survival time (in days)
^5 % T/C: (treated MST/control MST) × 100
^6 Criteria: When % T/C ≥ 125, the test compound was considere
to produce a marked antitumor effect at the particular concentration.

Data set [12] concerns human cancer cells. The data set can be described thus: In vitro growth inhibition of human cancer cells DLD-1, LS180 and PC13 (overall statement). Format: cell-based. The note with it: DLD-1, LS180, PC13; 72 hours, 37° C. As to the method:
as §2

Data set [13] concerns P388/S tumor cells. Description: In vitro growth inhibition of P388/S tumor cells (Coulter counter). The format is cell-based. The note with it: Mus musculus, 72 hours, 37° C., read-out: IC50, concentration causing 50% inhibition of P388/S cell growth. As to the method:
as §1, §4

Molecules are shown by their SMILES.

With `COc1cc(C)cc2c(=O)oc3c4cccc(O)c4c(OC4OC(C)C(O)C(O)C4O)cc3c12` (centres unmarked) [BE-12406A], in [1], the “acute toxicity, death on day 5” value is on record as “no death was found”. Besides, the “growth inhibition of P388 tumor cells (in words)” value in [2] is “markedly inhibit the growth”. In addition, the IC50 was 0.9 µM in [3]; 20.7 µM in data set [5]; 9.6 µM in [6]; 11 µM in data set [7]; 18.4 µM in data set [8]; 12 µM in data set [9]. Further, the IC50 in [10] was determined as 0.2 µM; in data set [13] it was 0.8 µM. The “inhibition of P388/A cells (in words)” value in [3] is “inhibited”. Moreover, the “Solubility in organic solvents” value in data set [4] (tetrahydrofuran) is on record as “readily soluble”. Also, the Solubility in water result in data set [4] is on record as “Sparingly soluble”. The “growth inhibition of L1210 cells (in words)” value in [6] was “inhibited growth”. In addition, in data set [7], the “growth inhibition of HeLa cells (in words)” value is listed as “inhibited growth”. Further, in data set [9], the “inhibition of proliferation of LS180 (in words)” value is recorded as “markedly inhibited proliferation”. For the same compound, the “MST (mean survival time)” value is 12.0 days in [11] (2.5 mg/kg/injection); 13.0 days in data set [11] (5 mg/kg/injection); 15.0 days in data set [11] (10 mg/kg/injection); more than 30.0 days in data set [11] (20 mg/kg/injection); more than 30.0 days in data set [11] (40 mg/kg/injection). Also, the “MST (% T/C), (treated MST/control MST) × 100” value in [11] (2.5 mg/kg/injection) was 120 % T/C; in [11] (5 mg/kg/injection) it was 130 % T/C; in data set [11] (10 mg/kg/injection) it was 150 % T/C; in data set [11] (20 mg/kg/injection), more than 300 % T/C; in [11] (40 mg/kg/injection), more than 300 % T/C. The “antitumor effect on transplanted S-180 tumor cells (in words)” value in data set [11] (mice) is “showed an antitumor effect”. Also, in data set [12], the “growth inhibition of human cancer cells (in words)” value is listed as “inhibit the growth”.
For the compound `COc1cc(C)cc2c(=O)oc3c4cccc(OC5OC(C)C(O)C(O)C5O)c4c(O)cc3c12` (centres unmarked) [BE-12406X1], in data set [4] (dimethylformamide), the “Solubility in organic solvents” value is “soluble”. Also, in data set [4], the Solubility in water result is recorded as “Sparingly soluble”. In addition, the IC50 in [5] turned out to be 115 µM; in data set [8] it was 91.9 µM; in data set [9], 36.3 µM. Moreover, the “inhibition of proliferation of LS180 (in words)” value in [9] is listed as “markedly inhibited proliferation”. Moreover, the “growth inhibition of human cancer cells (in words)” value in data set [12] is given as “inhibit the growth”.
Regarding `Cc1cc(O)c2c(c1)c(=O)oc1c3cccc(O)c3c(OC3OC(C)C(O)C(O)C3O)cc12` (centres unmarked) [BE-12406B], in data set [2], the “growth inhibition of P388 tumor cells (in words)” value is listed as “markedly inhibit the growth”. For the same compound, the IC50 in [3] is 11 µM; in data set [5], 161 µM; in data set [6] it was 60 µM; in [7], 20 µM; in data set [8] it was more than 220 µM; in data set [9] it was 88.1 µM. For the same compound, the IC50 in [10] and in data set [13] was 7 µM throughout. In addition, the “inhibition of P388/A cells (in words)” value in data set [3] is reported as “inhibited”. Moreover, in data set [4] (tetrahydrofuran), the “Solubility in organic solvents” value is “readily soluble”. Besides, the Solubility in water result in data set [4] is “Sparingly soluble”. Besides, in data set [6], the “growth inhibition of L1210 cells (in words)” value is “inhibited growth”. Also, in data set [7], the “growth inhibition of HeLa cells (in words)” value is given as “inhibited growth”. Moreover, the “growth inhibition of human cancer cells (in words)” value in data set [12] was “inhibit the growth”.
As for `COc1cc(C)cc2c(=O)oc3c4cccc(O)c4c(O)cc3c12` [BE-12406X2], the “Solubility in organic solvents” value in [4] (dimethylformamide) is listed as “soluble”. In addition, in data set [4], the Solubility in water entry was “Sparingly soluble”. Also, the IC50 in data set [5] was more than 311 µM; in data set [8], more than 311 µM; in data set [9], 311 µM. Moreover, the “growth inhibition of human cancer cells (in words)” value in [12] was “inhibit the growth”.
